{
  "source": "patent US20030134859A1",
  "about": "(SANKYO COMPANY, LIMITED, priority 2000, published 2003)",
  "note": "Where a name gives a salt, the structure may show the parent alone.",
  "data": [
    {"test_system": "Rat white adipocytes", "experiment": "Stimulation of differentiation of the adipocytes (Oil Red O)", "assay_type": "cell-based", "details": "Rattus norvegicus, Adipocyte, 120 h, 100 nM test compound; 5 days; Oil Red O ABS550; control = 100%, blank = 0%; Table 7; read-out: Rate of Differentiation (%)", "outline": "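Rat white adipocytes, 5,000 cells/well, cultured 5 days in differentiation-inducing medium with test compound at final 100 nM (0.1% DMSO). Cells fixed, stained with Oil Red O, dye extracted in DMSO and read at 550 nm; differentiation rate expressed relative to vehicle control (100%) and cell-free blank (0%).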", "units": {"activity at 0.1 µM": "%"}, "values": [
      {"compound": "O=C(Nc1ccc(NS(=O)(=O)c2ccccc2)cc1)c1cc([N+](=O)[O-])ccc1Cl", "note": "[Example 127, N-(4-Benzenesulfonylaminophenyl)-(2-chloro-5-nitrophenyl)carboxamide]", "activity at 0.1 µM": 112},
      {"compound": "O=C(Nc1ccc(C(=O)N2CCCCC2)cc1)c1cc([N+](=O)[O-])ccc1Cl", "note": "[Example 159, N-[4-(Piperidylcarbonyl)phenyl]-(2-chloro-5-nitrophenyl)carboxamide]", "activity at 0.1 µM": 123},
      {"compound": "CC(C)(C)c1cc(NS(=O)(=O)c2cccc(NC(=O)c3cc([N+](=O)[O-])ccc3Cl)c2)cc(C(C)(C)C)c1O", "note": "[Example 161, N-[3-[(3,5-di-tert-Butyl-4-hydroxyphenyl)aminosulfonyl]phenyl]-(2-chloro-5-nitrophenyl)carboxamide]", "activity at 0.1 µM": 113},
      {"compound": "CC(C)(C)c1cc(NS(=O)(=O)c2ccc(NC(=O)c3cc([N+](=O)[O-])ccc3Cl)cc2)cc(C(C)(C)C)c1O", "note": "[Example 175, N-[4-[(3,5-di-tert-Butyl-4-hydroxyphenyl)aminosulfonyl]phenyl]-(2-chloro-5-nitrophenyl)carboxamide]", "activity at 0.1 µM": 114},
      {"compound": "CCCN(CCC)c1ccc(NC(=O)c2cc([N+](=O)[O-])ccc2Cl)cc1", "note": "[Example 182, N-[4-(N,N-Dipropylamino)phenyl]-(2-chloro-5-nitrophenyl)carboxamide]", "activity at 0.1 µM": 122},
      {"compound": "O=C(Nc1nc(-c2ccc([N+](=O)[O-])cc2)cs1)c1cc([N+](=O)[O-])ccc1Cl", "note": "[Example 246, N-[4-(4-Nitrophenyl)thiazol-2-yl]-(2-chloro-5-nitrophenyl)carboxamide]", "activity at 0.1 µM": 120}
    ]},
    {"test_system": "Mouse preadipocyte strain 3T3-L1", "experiment": "Inhibition of differentiation as an indication of acetic acid uptake", "assay_type": "cell-based", "details": "0.1 μM test substance, control (0.01% dimethylsulfoxide) = 100%", "outline": "(§1)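 Confluent 3T3-L1 cells induced to differentiate for 4 days (insulin, IBMX, dexamethasone, 5% FBS) with test compound at 0.1 μM final or 0.01% DMSO, then 2 days in insulin maintenance medium, at 37 °C, 10% CO2. [2-14C]acetic acid uptake over 1 hr counted by scintillation; expressed as % of DMSO control.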", "units": {"Rate of Uptake (%) of [2-14C] acetic acid": "%"}, "values": [
      {"compound": "O=C(Nc1cccc(C(=O)N2CCCC2)c1)c1cc([N+](=O)[O-])ccc1Cl", "note": "[Example 31]", "Rate of Uptake (%) of [2-14C] acetic acid": 85.9},
      {"compound": "O=C(Nc1ccncc1)c1cc([N+](=O)[O-])ccc1Cl", "note": "[Example 49, N-(4-Pyridyl)-(2-chloro-5-nitrophenyl)carboxamide]", "Rate of Uptake (%) of [2-14C] acetic acid": 69.6},
      {"compound": "O=C(Nc1ccc(Cl)nn1)c1cc([N+](=O)[O-])ccc1Cl", "note": "[Example 89]", "Rate of Uptake (%) of [2-14C] acetic acid": 58.1},
      {"compound": "N-[4-(4-Methylbenzoylamino)phenyl]phenyl]-(2-chloro-5-nitrophenyl)carboxamide [Example 122]", "Rate of Uptake (%) of [2-14C] acetic acid": 75.4}
    ]},
    {"test_system": "Mouse preadipocyte strain 3T3-L1", "experiment": "Inhibition of differentiation as an indication of acetic acid uptake", "assay_type": "cell-based", "details": "Mus musculus, 0.1 μM test substance, control (0.01% dimethylsulfoxide) = 100%, read-out: Rate of Uptake (%) of [2-14C] acetic acid", "outline": "as §1", "units": {"activity at 0.1 µM": "%"}, "values": [
      {"compound": "O=C(Nc1ccc([N+](=O)[O-])cc1)c1cc([N+](=O)[O-])ccc1Cl", "note": "[Example 23, N-(4-Nitrophenyl)-(2-chloro-5-nitrophenyl)carboxamide]", "activity at 0.1 µM": 59.5},
      {"compound": "O=C(Nc1ccc([N+](=O)[O-])cn1)c1cc([N+](=O)[O-])ccc1Cl", "note": "[Example 24, N-(5-Nitropyridin-2-yl)-(2-chloro-5-nitrophenyl)carboxamide]", "activity at 0.1 µM": 66.1},
      {"compound": "O=C(Nc1cccc([N+](=O)[O-])c1)c1cc([N+](=O)[O-])ccc1Cl", "note": "[Example 25, N-(3-Nitrophenyl)-(2-chloro-5-nitrophenyl)carboxamide]", "activity at 0.1 µM": 66.3},
      {"compound": "O=C(Nc1ccc(NC(=O)c2cc([N+](=O)[O-])ccc2Cl)nc1)c1cc([N+](=O)[O-])ccc1Cl", "note": "[Example 64, 2,5-bis(2-Chloro-5-nitrobenzoylamino)pyridine]", "activity at 0.1 µM": 96.2}
    ]},
    {"test_system": "Mouse preadipocyte strain 3T3-L1", "experiment": "Inhibition of differentiation as an indication of acetic acid uptake", "assay_type": "cell-based", "details": "Mus musculus, 3T3-L1, 0.1 μM test substance, control (0.01% dimethylsulfoxide) = 100%, read-out: Rate of Uptake (%) of [2-14C] acetic acid", "outline": "as §1", "units": {"activity at 0.1 µM": "%"}, "values": [
      {"compound": "N#Cc1cccc(NC(=O)c2cc([N+](=O)[O-])ccc2Cl)c1", "note": "[Example 21, N-(3-Cyanophenyl)-(2-chloro-5-nitrophenyl)carboxamide]", "activity at 0.1 µM": 70.3},
      {"compound": "O=C(Nc1nc(-c2ccc3ccccc3c2)cs1)c1cc([N+](=O)[O-])ccc1Cl", "note": "[Example 42, N-[4-(2-Naphthyl)thiazol-2-yl)-(2-chloro-5-nitrophenyl)carboxamide]", "activity at 0.1 µM": 60},
      {"compound": "O=C(Nc1cnc2ccccc2c1)c1cc([N+](=O)[O-])ccc1Cl", "note": "[Example 55, N-(3-Quinolinyl)-(2-chloro-5-nitrophenyl)carboxamide]", "activity at 0.1 µM": 55.4},
      {"compound": "O=C(Nc1ccc(Cl)nc1)c1cc([N+](=O)[O-])ccc1Cl", "note": "[Example 62, N-(6-Chloropyridin-3-yl)-(2-chloro-5-nitrophenyl)carboxamide]", "activity at 0.1 µM": 82.9},
      {"compound": "O=C(Nc1nc2cc(Cl)ccc2o1)c1cc([N+](=O)[O-])ccc1Cl", "note": "[Example 75, N-(5-Chlorobenzoxazol-2-yl)-(2-chloro-5-nitrophenyl)carboxamide]", "activity at 0.1 µM": 80.1},
      {"compound": "O=C(Nc1ncc(Br)cn1)c1cc([N+](=O)[O-])ccc1Cl", "note": "[Example 77, N-(5-Bromopyrimidin-2-yl)-(2-chloro-5-nitrophenyl)carboxamide]", "activity at 0.1 µM": 62.7},
      {"compound": "Nc1ccc(-c2ccc(NC(=O)c3cc([N+](=O)[O-])ccc3Cl)cc2)cc1", "note": "[Example 88, N-[4-(4-Aminophenyl)phenyl]-(2-chloro-5-nitrophenyl)carboxamide mono-hydrochloride]", "activity at 0.1 µM": 56.4},
      {"compound": "Cc1c(C)c2c(c(C)c1O)C(=O)CC(C)(COc1ccc(NC(=O)c3cc([N+](=O)[O-])ccc3Cl)cc1)O2", "note": "(stereo not shown) [Example 92, N-[4-(6-Hydroxy-2,5,7,8-tetramethyl-4-oxochroman-2-ylmethoxy)phenyl]-(2-chloro-5-nitrophenyl)carboxamide]", "activity at 0.1 µM": 63},
      {"compound": "CS(=O)(=O)Nc1ccc(-c2ccc(NC(=O)c3cc([N+](=O)[O-])ccc3Cl)cc2)cc1", "note": "[Example 93, N-[4-[4-(Methanesulfonylamino)phenyl]phenyl]-(2-chloro-5-nitrophenyl)carboxamide]", "activity at 0.1 µM": 90.3},
      {"compound": "Cc1ccc(S(=O)(=O)Nc2ccc(-c3ccc(NC(=O)c4cc([N+](=O)[O-])ccc4Cl)cc3)cc2)cc1", "note": "[Example 94, N-[4-[4-(4-Toluenesulfonylamino)phenyl]phenyl]-(2-chloro-5-nitrophenyl)carboxamide]", "activity at 0.1 µM": 80.4},
      {"compound": "Cc1nnc(NS(=O)(=O)c2ccc(NC(=O)c3cc([N+](=O)[O-])ccc3Cl)cc2)s1", "note": "[Example 101, N-[4-[(5-Methyl-[1,3,4]thiadiazol-2-yl)aminosulfonyl]phenyl]-(2-chloro-5-nitrophenyl)carboxamide]", "activity at 0.1 µM": 78.3},
      {"compound": "CC(=O)Nc1ccc(-c2ccc(NC(=O)c3cc([N+](=O)[O-])ccc3Cl)cc2)cc1", "note": "[Example 118, N-[4-(4-Acetylaminophenyl)phenyl]-(2-chloro-5-nitrophenyl)carboxamide]", "activity at 0.1 µM": 79.6},
      {"compound": "O=C(Nc1ccc(-c2ccc(NC(=O)c3cc([N+](=O)[O-])ccc3Cl)cc2)cc1)c1ccccc1", "note": "[Example 120, N-[4-(4-Benzoylaminophenyl)phenyl]-(2-chloro-5-nitrophenyl)carboxamide]", "activity at 0.1 µM": 64.6},
      {"compound": "O=C(Nc1ccc(-c2ccc(NC(=O)c3cc([N+](=O)[O-])ccc3Cl)cc2)cc1)c1cccnc1", "note": "[Example 124, N-[4-[4-(Pyridin-3-ylcarbonylamino)phenyl]phenyl]-(2-chloro-5-nitrophenyl)carboxamide]", "activity at 0.1 µM": 60},
      {"compound": "O=C(Nc1cnccn1)c1cc([N+](=O)[O-])ccc1Cl", "note": "[Example 140, N-(Pyrazin-2-yl)-(2-chloro-5-nitrophenyl)carboxamide]", "activity at 0.1 µM": 72.4},
      {"compound": "Cl.O=C(Nc1ccncc1)c1cc([N+](=O)[O-])ccc1Cl", "note": "[Example 146, N-(Pyridin-4-yl)-(2-chloro-5-nitrophenyl)carboxamide Hydrochloride]", "activity at 0.1 µM": 60},
      {"compound": "Cc1ccc(C(=O)Nc2nc3ccc(NC(=O)c4cc([N+](=O)[O-])ccc4Cl)cc3s2)cc1", "note": "[Example 149, N-[2-(4-Methylbenzoylamino)benzothiazol-6-yl]-(2-chloro-5-nitrophenyl)carboxamide]", "activity at 0.1 µM": 76.5}
    ]}
  ]
}
